Test results as given in patent US20060222628A1, “Gallium complexes of 3-hydroxy-4-pyrones to treat infection by intracellular prokaryotes and DNA viruses” (priority 1999, published 2006).

Key:
[1] = tested on: reverse transcriptase in Rauscher murine leukemia virus; details: in vitro; cited from earlier work
[2] = tested on: HIV-1; details: at subinhibitory concentrations; cited from earlier work
[3] = type: physicochemical
Description: The material forms white to pale beige monoclinic crystals with unit cell parameters of about a=7.899(1)Å, b=8.765(1)Å, c=31.626(2)Å, beta=103.253(7) degrees, V=2131 Å^3, based on powder x-ray diffraction analysis. The solubility of this compound is measured as about 5 millimolar in distilled deionized water at 23° C. Crystallization from other solvents or under other conditions may produce other crystal structures. Under some conditions, water or other solvents may also be incorporated into the structure. […] About 5.5 grams of powdered anhydrous sodium carbonate are added, and stirring continues for additional 12 minutes. […] The remaining crystalline solid is the 3:1 maltol gallium composition. […] The solubility of this composition is measured as about 24 millimolar in distilled deionized water at 23° C.

[4] = in vivo, po; cited from earlier work

For `[Ga]` [Gallium], the “Inhibition of reverse transcriptase” value [1] is listed as “shown in vitro to inhibit the enzyme reverse transcriptase”.

In the case of `O=[N+]([O-])[O-].O=[N+]([O-])[O-].O=[N+]([O-])[O-].[Ga+3]` [gallium nitrate], the “Effect on inhibitory effects of nucleoside analogs” value [2] is listed as “potentiated the inhibitory effects of zidovudine, azidothymidine (AZT), dideoxy inosine (ddI), and dideoxy cytosine (ddC)”.

In the case of `CCc1occc(=O)c1[O-].CCc1occc(=O)c1[O-].CCc1occc(=O)c1[O-].[Ga+3]` [gallium ethyl maltolate, tris(3-hydroxy-2-ethyl-4H-pyran-4-onato)gallium], the Solubility [3] is reported as “about 5 millimolar”.

For `Cc1occc(=O)c1O` [maltol, 3-hydroxy-2-methyl-4-pyrone], the “Toxicity when taken orally” value [4] is listed as “very low toxicities”.

For `CCc1occc(=O)c1O` [ethyl maltol, 3-hydroxy-2-ethyl-4-pyrone], the “Toxicity when taken orally” value [4] is given as “very low toxicities”.
